In publication PMC7549094 (Journal of Medicinal Chemistry, 2020):

Tests used:
[1] = microsomal extraction ratio, 1 h incubation in microsomes
[2] = microsomal extraction ratio, 1 h incubation in microsomes; remark: listed apart in the source
ov COX-1 = molecular target: T1, ov COX-1 (Ovis aries, UniProt P05979); experiment: receptor profile (Table S4); format: biochemical, ovine
T1 sequence (P05979 25-600): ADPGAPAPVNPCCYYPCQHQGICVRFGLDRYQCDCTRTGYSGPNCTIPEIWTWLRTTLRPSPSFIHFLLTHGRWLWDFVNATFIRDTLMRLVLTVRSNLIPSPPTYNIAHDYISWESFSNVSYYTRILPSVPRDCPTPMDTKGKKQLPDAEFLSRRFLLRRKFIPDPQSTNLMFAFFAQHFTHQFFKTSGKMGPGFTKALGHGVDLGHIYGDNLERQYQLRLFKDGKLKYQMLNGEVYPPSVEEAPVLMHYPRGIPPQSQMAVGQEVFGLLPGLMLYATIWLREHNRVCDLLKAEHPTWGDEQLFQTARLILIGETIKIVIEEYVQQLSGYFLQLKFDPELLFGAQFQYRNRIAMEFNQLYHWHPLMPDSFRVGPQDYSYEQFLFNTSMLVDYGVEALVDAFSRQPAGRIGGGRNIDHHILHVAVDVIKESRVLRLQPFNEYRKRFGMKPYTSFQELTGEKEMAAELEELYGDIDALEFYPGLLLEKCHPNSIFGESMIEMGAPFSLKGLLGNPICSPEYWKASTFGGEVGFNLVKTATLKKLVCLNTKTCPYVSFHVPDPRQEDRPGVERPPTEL

hr M2 antag = molecular target: T2, hr M2 antag (Homo sapiens, UniProt P08172); experiment: receptor profile (Table S4); format: biochemical
T2 sequence (P08172 1-466): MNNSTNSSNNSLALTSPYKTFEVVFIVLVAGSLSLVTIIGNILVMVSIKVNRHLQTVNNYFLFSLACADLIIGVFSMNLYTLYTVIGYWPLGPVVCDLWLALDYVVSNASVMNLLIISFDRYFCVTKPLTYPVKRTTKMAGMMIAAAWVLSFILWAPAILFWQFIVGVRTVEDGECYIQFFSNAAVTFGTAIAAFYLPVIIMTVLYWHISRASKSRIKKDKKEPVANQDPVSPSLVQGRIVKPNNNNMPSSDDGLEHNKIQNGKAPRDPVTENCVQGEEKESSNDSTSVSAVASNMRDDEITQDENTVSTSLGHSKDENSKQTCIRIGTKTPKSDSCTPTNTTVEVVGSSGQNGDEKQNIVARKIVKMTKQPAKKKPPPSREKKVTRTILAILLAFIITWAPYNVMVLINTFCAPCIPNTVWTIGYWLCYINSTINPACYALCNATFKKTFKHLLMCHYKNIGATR

hr D3 = hr D3 (Homo sapiens, UniProt P35462); experiment: receptor profile (Table S4); format: binding
Chain of hr D3 (P35462 whole entry): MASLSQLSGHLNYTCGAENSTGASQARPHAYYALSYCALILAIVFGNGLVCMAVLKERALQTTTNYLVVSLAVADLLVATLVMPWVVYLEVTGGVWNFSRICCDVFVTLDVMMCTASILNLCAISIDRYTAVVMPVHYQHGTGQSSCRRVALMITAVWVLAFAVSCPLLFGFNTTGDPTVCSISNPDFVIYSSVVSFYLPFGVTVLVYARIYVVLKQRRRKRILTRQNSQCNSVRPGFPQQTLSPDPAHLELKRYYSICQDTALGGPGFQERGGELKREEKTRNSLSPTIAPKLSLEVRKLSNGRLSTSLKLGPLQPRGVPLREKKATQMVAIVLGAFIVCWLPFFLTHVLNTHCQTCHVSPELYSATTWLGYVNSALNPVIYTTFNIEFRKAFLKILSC

hr MAOA = molecular target: T3, hr MAOA (Homo sapiens, UniProt P21397); experiment: receptor profile (Table S4); format: biochemical
T3 sequence (P21397 1-527): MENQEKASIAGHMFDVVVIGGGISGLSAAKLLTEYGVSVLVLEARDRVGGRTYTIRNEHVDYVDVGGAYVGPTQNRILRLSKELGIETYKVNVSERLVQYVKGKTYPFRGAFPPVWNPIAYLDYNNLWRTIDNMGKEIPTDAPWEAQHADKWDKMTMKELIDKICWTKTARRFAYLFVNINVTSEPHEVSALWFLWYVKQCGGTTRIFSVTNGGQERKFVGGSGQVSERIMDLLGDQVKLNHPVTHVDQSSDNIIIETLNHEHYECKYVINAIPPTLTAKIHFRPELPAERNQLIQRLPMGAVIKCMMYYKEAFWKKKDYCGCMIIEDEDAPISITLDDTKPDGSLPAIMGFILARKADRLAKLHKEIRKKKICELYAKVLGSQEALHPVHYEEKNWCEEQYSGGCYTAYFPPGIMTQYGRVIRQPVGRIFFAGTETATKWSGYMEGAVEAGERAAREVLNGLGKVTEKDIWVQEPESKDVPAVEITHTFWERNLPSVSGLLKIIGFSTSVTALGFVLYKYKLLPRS

[3] = dissolution study and supersaturation stability in FASSIF; format: physicochemical
[4] = metabolite profile in dog hepatocytes; format: in vitro ADME; details: 10 μM of 1 for 4 h, UV 250 nm, normalized to largest peak
hr DAT = hr DAT (Homo sapiens, UniProt Q01959); experiment: receptor profile (Table S4); format: binding
Chain of hr DAT (Q01959 whole entry): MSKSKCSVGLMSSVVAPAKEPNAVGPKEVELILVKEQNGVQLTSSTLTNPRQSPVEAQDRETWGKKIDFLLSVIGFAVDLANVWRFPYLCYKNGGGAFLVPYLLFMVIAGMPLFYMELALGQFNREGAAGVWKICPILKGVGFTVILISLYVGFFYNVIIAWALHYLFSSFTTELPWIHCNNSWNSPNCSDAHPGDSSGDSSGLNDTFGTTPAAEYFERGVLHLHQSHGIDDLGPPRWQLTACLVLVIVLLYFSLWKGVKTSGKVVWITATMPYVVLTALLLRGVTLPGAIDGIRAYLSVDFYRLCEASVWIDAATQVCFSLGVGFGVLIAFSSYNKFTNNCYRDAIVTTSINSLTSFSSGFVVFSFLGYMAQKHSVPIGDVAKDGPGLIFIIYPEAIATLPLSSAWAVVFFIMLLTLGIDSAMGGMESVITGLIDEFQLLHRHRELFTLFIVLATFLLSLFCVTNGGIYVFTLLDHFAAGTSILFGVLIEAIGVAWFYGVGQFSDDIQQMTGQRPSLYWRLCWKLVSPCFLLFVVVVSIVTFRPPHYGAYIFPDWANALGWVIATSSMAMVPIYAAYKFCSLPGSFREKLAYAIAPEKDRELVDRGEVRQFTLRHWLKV

[5] = brain/plasma exposure in mice; format: in vivo; details: mouse, brain, read-out: brain/plasma AUC ratio
hr KDR = hr KDR (Homo sapiens, UniProt P35968); experiment: receptor profile (Table S4); format: biochemical
Chain of hr KDR (P35968 20-1356): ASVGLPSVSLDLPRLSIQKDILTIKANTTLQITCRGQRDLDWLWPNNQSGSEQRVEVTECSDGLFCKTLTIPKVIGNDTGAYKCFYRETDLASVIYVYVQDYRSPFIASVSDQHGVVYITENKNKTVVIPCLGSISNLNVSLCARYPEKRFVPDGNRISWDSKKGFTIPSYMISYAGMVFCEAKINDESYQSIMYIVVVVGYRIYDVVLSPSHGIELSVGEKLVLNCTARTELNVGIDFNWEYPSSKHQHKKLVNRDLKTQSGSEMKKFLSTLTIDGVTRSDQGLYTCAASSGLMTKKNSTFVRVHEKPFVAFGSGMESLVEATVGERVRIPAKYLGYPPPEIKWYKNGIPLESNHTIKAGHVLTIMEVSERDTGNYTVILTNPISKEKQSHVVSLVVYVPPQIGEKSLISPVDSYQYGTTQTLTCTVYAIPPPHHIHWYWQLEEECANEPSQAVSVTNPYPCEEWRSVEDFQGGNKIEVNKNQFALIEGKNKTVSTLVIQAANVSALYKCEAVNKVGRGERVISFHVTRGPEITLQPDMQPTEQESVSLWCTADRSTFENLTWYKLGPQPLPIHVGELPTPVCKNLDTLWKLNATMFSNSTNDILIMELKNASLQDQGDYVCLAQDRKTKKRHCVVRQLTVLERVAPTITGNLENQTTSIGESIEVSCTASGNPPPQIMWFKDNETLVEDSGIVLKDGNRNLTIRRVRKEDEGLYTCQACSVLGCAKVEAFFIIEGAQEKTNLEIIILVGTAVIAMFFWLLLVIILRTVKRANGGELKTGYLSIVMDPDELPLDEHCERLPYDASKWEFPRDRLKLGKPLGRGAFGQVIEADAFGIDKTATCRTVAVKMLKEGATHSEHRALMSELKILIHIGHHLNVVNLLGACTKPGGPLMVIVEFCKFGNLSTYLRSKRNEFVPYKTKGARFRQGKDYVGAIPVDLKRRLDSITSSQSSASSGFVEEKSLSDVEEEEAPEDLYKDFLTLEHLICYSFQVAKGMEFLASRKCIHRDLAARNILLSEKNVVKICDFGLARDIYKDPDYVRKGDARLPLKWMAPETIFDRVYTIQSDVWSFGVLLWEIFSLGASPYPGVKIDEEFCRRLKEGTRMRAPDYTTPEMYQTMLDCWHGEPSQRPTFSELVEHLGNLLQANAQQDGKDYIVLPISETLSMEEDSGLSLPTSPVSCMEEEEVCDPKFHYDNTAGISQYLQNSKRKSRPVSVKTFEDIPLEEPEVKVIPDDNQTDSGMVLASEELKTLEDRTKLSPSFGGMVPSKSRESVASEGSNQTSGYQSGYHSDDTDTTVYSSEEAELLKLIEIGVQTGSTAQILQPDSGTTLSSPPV

[6] = male beagle dog, 1.0 mg/kg PO, dose-normalized

Cc1nc(C)c(C(=O)Nc2ccc(F)c(-c3nc4ncc(-c5ncccc5C)cn4n3)c2)o1 [compound 1, N-(4-Fluoro-3-(6-(3-methylpyridin-2-yl)-[1,2,4]triazolo[1,5-a]pyrimidin-2-yl)phenyl)-2,4-dimethyloxazole-5-carboxamide]
ER mouse [1]: < 0.21
ER rat [2]: < 0.18
CL as % of hepatic blood flow (dog, IV, fumarate salt): 37 % of hepatic blood flow
DN AUC PO [6]: 1.5 µM·h
DN Cmax PO [6]: 0.3 µM
EC50/IC50 (ov COX-1; ov COX-1): > 30 µM
inhibition at 10 µM (ov COX-1; read-out: % inh/act @ 10 µM): 16%
inhibition at 30 µM (ov COX-1; read-out: % inh/act @ 30 µM): 14%
EC50/IC50 (hr M2 antag; hr M2 antag): > 30 µM
inhibition at 10 µM (hr M2 antag; read-out: % inh/act @ 10 µM): 16%
inhibition at 30 µM (hr M2 antag; read-out: % inh/act @ 30 µM): 31%
EC50/IC50 (hr D3; hr D3): > 30 µM
inhibition at 10 µM (hr D3; read-out: % inh/act @ 10 µM): 9%
inhibition at 30 µM (hr D3; read-out: % inh/act @ 30 µM): 7%
% inh/act @ 10 µM (h Nic(cns)): 20%
% inh/act @ 30 µM (h Nic(cns)): 24%
EC50/IC50 (hr MAOA; hr MAOA): > 30 µM
inhibition at 10 µM (hr MAOA; read-out: % inh/act @ 10 µM): 4%
inhibition at 30 µM (hr MAOA; read-out: % inh/act @ 30 µM): 12%
concentration in FASSIF (supersaturation) ([3]; fumarate cocrystal of 1, FASSIF, at 16 min): 73 µM
dissolution rate ([3]; fumarate cocrystal of 1 vs free base of 2, Figure 1): significantly higher dissolution rate
abundance dog [4]: +++ (+++ > 75%)
EC50/IC50 (hr DAT; hr DAT): > 30 µM
inhibition at 10 µM (hr DAT; read-out: % inh/act @ 10 µM): 17%
inhibition at 30 µM (hr DAT; read-out: % inh/act @ 30 µM): 22%
Kp [5]: 0.03
EC50/IC50 (hr KDR; hr KDR): > 30 µM
inhibition at 10 µM (hr KDR; read-out: % inh/act @ 10 µM): 21%
inhibition at 30 µM (hr KDR; read-out: % inh/act @ 30 µM): 22%
